Experiments:
[1] = Light stability of lacidipine solution in differently coloured polypropylene vessels exposed to daylight; assay type: physicochemical; details: daylight 6 to 8 hours
Description: As a representative of the very light-sensitive 1,4-dihydropyridine derivatives, lacidipine is used. By way of the example of lacidipine it is possible to show the influence the absorption spectrum of a polymer, for instance, one based on polypropylene, has on the stability of the 1,4-dihydropyridine derivative.
To carry out the experiment, the lacidipine was dissolved in a solvent. Since dissolved lacidipine is very sensitive to electromagnetic-radiation, it was possible to clearly determine the influence of the polymers examined. The lacidipine solution was filled in differently coloured vessels of polypropylene and exposed to daylight for a defined period of time. The vessels in this context served as models for a coloured film. After the vessels had been exposed to a certain radiation (for a time of 6 to 8 hours), the lacidipine content of the samples was determined. On the basis of the known initial concentration and the detected active substance amounts it was possible to make a statement on the protective action of the polymers used.
The absorption spectrum of lacidipine contains three maxima [238.4 nm; 282.8 nm; 367.4 nm]. These wavelength regions determine the light-sensitivity of the active substance. […] It can thus be concluded that to ensure maximum stability in the present case brown or aluminized polymers should be used.

[2] = cited from earlier work

| Compound | Amount of active substance after irradiation ([1]; polymer aluminized, lichtundurchlässig) | Amount of active substance after irradiation ([1]; polymer blue, clear, absorption range <325 nm, 500 nm-700 nm) | Amount of active substance after irradiation ([1]; polymer brown, clear, absorption range <500 nm) | Amount of active substance after irradiation ([1]; polymer green, clear, absorption range <325 nm, >800 nm) | Amount of active substance after irradiation ([1]; polymer orange, klar, absorption range 550 nm-750 nm) | Amount of active substance after irradiation ([1]; polymer transparent, clear, absorption range <300 nm) | Amount of active substance after irradiation ([1]; polymer transparent, cloudy, absorption range <300 nm) | Amount of active substance after irradiation ([1]; polymer yellow, clear, absorption range <350 nm, >700 nm) | rate of degradation of the active substance ([2]; with a yellow colourant having its absorption maximum in the range of 400 nm) | stabilisation against light ([2]; with light-stability or screening agents absorbing UV-A or UV-B rays) |
| --- | --- | --- | --- | --- | --- | --- | --- | --- | --- | --- |
| CCOC(=O)C1=C(C)NC(C)=C(C(=O)OCC)C1c1ccccc1/C=C/C(=O)OC(C)(C)C [lacidipine] | 99.36 % of initial amount | 23.46 % of initial amount | 98.93 % of initial amount | 12.40 % of initial amount | 15.65 % of initial amount | 14.79 % of initial amount | 21.05 % of initial amount | 29.32 % of initial amount |  |  |
| CC1=C(/C=C/C(C)=C/C=C/C(C)=C/C(=O)O)C(C)(C)CCC1 [vitamine A acid] |  |  |  |  |  |  |  |  | substantially reduced | did not yield the desired results |
